Key:
[1] = test system: Rabbits (New Zealand White); assay: Acute Eye Irritation/Corrosion Test in Rabbits; assay type: in vivo
Experimental: Acute Eye Irritation/Corrosion Test for Diethylene Glycol Monoethyl Ether (Transcutol HP) in Rabbits • Test Item Transcutol HP • Diluted with: Water for injection • Test System Rabbits (New Zealand White) • Total No. of Animals: 6 animals for initial test • 12 animals for confirmatory test • No. of groups: 6 Study Design:
Initial test is carried out by using one animal per group.
Irrigation was carried out after 24 hrs from the treatment and the animals are again observed for symptoms of toxicity.
Confirmatory test is carried out by using two animals per group.
The dosing methodology and irrigation procedure was same as mentioned in the initial test and the observations were found as follows: […]

[2] = Intramuscular, Intravenous and Intraocular safety studies; conditions: in vivo
[3] = water; cited from earlier work

In the case of `CCOCCOCCO` [Diethylene glycol monoethyl ether, 2-(2-Ethoxyethoxy)ethanol], the “eye irritation, confirmatory test” value ([1]; 1 hr, first three groups) is reported as “no test item related effects”, the “eye irritation, confirmatory test” value ([1]; 1 hr, group 4 and group 5) is reported as “Mild irritation” and the “eye irritation, confirmatory test” value ([1]; 1 hr, group 6) is reported as “severe irritation”. The “eye irritation, initial test” value ([1]; 24 hr, all animals except group 6) was “normal”, the “eye irritation, confirmatory test” value ([1]; 24 hr, group 1 to group 3) was “normal” and the “eye irritation, confirmatory test” value ([1]; 24 hr, group 4 and group 5) was “mild irritation including Chemosis, lacrimation and mild pupillary constriction”. For the same compound, the “eye irritation, confirmatory test” value ([1]; 24 hr, group 6) was “severe irritation”, the “eye irritation, initial test” value ([1]; 24 hr, group 6) was “mild irritation including Chemosis and Lacrimation” and the “ocular toxicity, summary” value ([1]; concentration of 100%, intra occularly) was “irritant but not corrosive”. For the same compound, the “eye irritation, initial test” value ([1]; first hour, first three groups) was “no test item related effects”, the “eye irritation, initial test” value ([1]; first hour, group 4 and 5) was “Mild irritation” and the “eye irritation, initial test” value ([1]; first hour, group 6) was “moderate irritation”. For the same compound, the “corrosion effect, initial test” value ([1]; rabbit, in vivo) was “no corrosion effect”, the “ocular toxicity, summary” value ([1]; up to 80% of concentration) was “not showing any occular toxicity” and the “safety in Intramuscular, Intravenous and Intraocular studies” value [2] was “safe and non toxic”. The “Solubility in water (descriptive)” value [3] was “soluble”.
